From publication PMC8842277, “Highly Antiproliferative Latonduine and Indolo[2,3-c]quinoline Derivatives: Complex Formation with Copper(II) Markedly Changes the Kinase Inhibitory Profile” (Journal of Medicinal Chemistry, 2022)

Columns and labels:
[1] = test system: HCT-116 colon carcinoma cells; experiment: MTT assay, 96 h; assay type: cell-based, human
Source text: The oncosuppressor protein p53 controls the cellular response to DNA strand breaks induced by cytotoxic drugs or by radiation.[58] The p53 protein may enhance cell chemosensitivity by promoting apoptosis via different mechanisms including activation of proapoptotic genes such as bax and repression of antiapoptotic genes such as bcl-2 or in contrast increase chemoresistance by promoting p21-mediated and p21-independent growth arrest and DNA repair and by activation of antiapoptotic genes such as bcl-x. There is strong evidence that the modulation of drug sensitivity by p53 may be both drug- and cell type-specific.[59] […] Accordingly, essential differences in chemosensitivity were observed between cells with wild-type p53 gene and cells with knocked out p53 gene by homologous recombination.[60]
Human colonic adenocarcinoma cell lines Colo 205 doxorubicin-sensitive (ATCC-CCL-222) and Colo 320/MDR-LRP multidrug resistant over-expressing ABCB1 (MDR1)-LRP (ATCC-CCL-220.1) were purchased from LGC Promochem, Teddington, UK. The cells were cultured in an RPMI 1640 medium supplemented with 10% heat-inactivated fetal bovine serum, 2 mM L-glutamine, 1 mM Na-pyruvate, and 10 mM HEPES. The semi-adherent human colon cancer cells were detached with Trypsin-Versene (EDTA) solution for 5 min at 37 °C. An MRC-5 human embryonal lung fibroblast cell line (ATCC CCL-171) was purchased from LGC Promochem, Teddington, UK. The cells were cultured in Eagle’s minimal essential medium (EMEM, containing 4.5 g L^–1 glucose) supplemented with a non-essential amino acid mixture, a selection of vitamins, and 10% heat-inactivated fetal bovine serum. The HCT-116 colon carcinoma cells and isogenic p53-knock-out subline were a gift of Prof. Bert Vogelstein from The Johns Hopkins Oncology Center. Cells were cultured in McCoy’s 5A medium supplemented with 10% heat-inactivated fetal bovine serum and 4 mM L-glutamine. All cell lines were incubated at 37 °C, in a 5% CO2, 95% air atmosphere.
MRC-5 non-cancerous human embryonic lung fibroblast and human colonic adeno-carcinoma cell lines (doxorubicin-sensitive Colo 205 and multidrug resistant Colo 320 colonic adenocarcinoma cells) were used to determine the effect of compounds on cell growth. The effects of increasing concentrations of compounds on cell growth were tested in 96-well flat-bottomed microtiter plates. The compounds were dissolved in DMSO and stock solutions of 10 mM were prepared. These were further diluted in the appropriate cell culture medium by twofold serial dilution starting from 100 or 10 μM for the compounds. The adherent human embryonal lung fibroblast cells were cultured in 96-well flat-bottomed microtiter plates using EMEM supplemented with 10% heat-inactivated fetal bovine serum. The density of the cells was adjusted to 1 × 10^4 cells in 100 μL per well, the cells were seeded for 24 h at 37 °C, 5% CO2, then the medium was removed from the plates containing the cells, and the dilutions of compounds previously made in a separate plate were added to the cells in 200 μL. In the case of the colonic adenocarcinoma cells, the twofold serial dilutions of compounds were prepared in 100 μL of RPMI 1640, horizontally. The semi-adherent colonic adenocarcinoma cells were treated with Trypsin-Versene (EDTA) solution. They were adjusted to a density of 1 × 10^4 cells in 100 μL of RPMI 1640 medium and were added to each well, with the exception of the medium control wells. […]

SmMLCK = SmMLCK (Homo sapiens, UniProt Q15746); experiment: Kinase panel screen; assay type: biochemical; details: 10 µM compound
Source text: (§1) Figure 7 (see also Table S4) summarizes the results of this assay as a histogram plotting the percentage of the remaining enzyme activity (x-axis) as a function of added lead compound (HL^8: blue trace, 8: red trace) for each of the 50 enzymes assayed (y-axis). […] Thus, the coordination to copper(II) completely changes the kinase inhibition profile of HL^8.
(§2) Figure 7 Screening of HL^8 and 8 against 50 enzymes: histogram with % remaining activity on the x-axis plotted against the compound identifier (blue trace: HL^8 and red trace: 8) and enzyme identifier on the […]. The screen was carried out at a compound concentration of 10 μM, an enzyme concentration of 50 nM, and an ATP concentration of 100 μM.
(§3) All kinase assays were carried out using Multidrop 384’s at room temperature in a total assay volume of 25.5 μL. To plates containing 0.5 μL of HL^8 and 8, DMSO control or acid blank […], 15 μL of an enzyme mix containing enzyme […], and excess peptide/protein substrate in buffer was added. Compounds were pre-incubated in the presence of the enzyme and peptide/protein substrate for 5 min before initiation of the reaction by addition of 10 μL of ATP (final concentration selected for each kinase at 5, 20, or 50 μM). Assays were carried out for 30 min at room temperature before termination by the addition of 5 μL of orthophosphoric acid. The assay plates were then harvested onto P81 Unifilter Plates by a PerkinElmer Harvester and air dried. The dry Unifilter plates were then sealed on the addition of MicroScint O and were counted in PerkinElmer Topcount scintillation counters.

CHK2 = CHK2 (Homo sapiens, UniProt O96017); experiment: Kinase panel screen; assay type: biochemical; details: 10 µM compound
Source text: as §1, §2, §3

HER4 = HER4 (Homo sapiens, UniProt Q15303); experiment: Kinase panel screen; assay type: biochemical; details: 10 µM compound
Source text: as §1, §2, §3

S6K1 = S6K1 (Homo sapiens, UniProt P23443); experiment: Kinase panel screen; assay type: biochemical; details: 10 µM compound
Source text: as §1, §2, §3

SRPK1 = SRPK1 (Homo sapiens, UniProt Q96SB4); experiment: Kinase panel screen; assay type: biochemical; details: 10 µM compound
Source text: as §1, §2, §3

TrkA = TrkA (Homo sapiens, UniProt P04629); experiment: Kinase panel screen; assay type: biochemical; details: 10 µM compound
Source text: as §1, §2, §3

TBK1 = TBK1 (Homo sapiens, UniProt Q9UHD2); experiment: Kinase panel screen; assay type: biochemical; details: 10 µM compound
Source text: as §1, §2, §3

IGF-1R = IGF-1R (Homo sapiens, UniProt P08069); experiment: Kinase panel screen; assay type: biochemical; details: 10 µM compound
Source text: as §1, §2, §3

PLK1 = PLK1 (Homo sapiens, UniProt P53350); experiment: Kinase panel screen; assay type: biochemical; details: 10 µM compound
Source text: as §1, §2, §3

ROCK 2 = ROCK 2 (Homo sapiens, UniProt O75116); experiment: Kinase panel screen; assay type: biochemical; details: 10 µM compound
Source text: as §1, §2, §3

[2] = Thermodynamic solubility, UV–vis of saturated solutions
Experimental: The concentration of the compounds was determined by UV–vis spectrophotometry using stock solutions of the compounds with a known concentration dissolved in pure DMSO and 50% (v/v) DMSO/buffered aqueous solution for the calibration.

AMPK (hum) = experiment: Kinase panel screen; assay type: biochemical, human; details: 10 µM compound
Source text: as §1, §2
as §3, with “Assays were carried out for 30 min at room temperature before termination by the addition of 5 μL of orthophosphoric acid. The assay plates were then harvested onto P81 Unifilter Plates by a PerkinElmer Harvester and air dried.” left out

Sequence of PLK1 (P53350 whole entry): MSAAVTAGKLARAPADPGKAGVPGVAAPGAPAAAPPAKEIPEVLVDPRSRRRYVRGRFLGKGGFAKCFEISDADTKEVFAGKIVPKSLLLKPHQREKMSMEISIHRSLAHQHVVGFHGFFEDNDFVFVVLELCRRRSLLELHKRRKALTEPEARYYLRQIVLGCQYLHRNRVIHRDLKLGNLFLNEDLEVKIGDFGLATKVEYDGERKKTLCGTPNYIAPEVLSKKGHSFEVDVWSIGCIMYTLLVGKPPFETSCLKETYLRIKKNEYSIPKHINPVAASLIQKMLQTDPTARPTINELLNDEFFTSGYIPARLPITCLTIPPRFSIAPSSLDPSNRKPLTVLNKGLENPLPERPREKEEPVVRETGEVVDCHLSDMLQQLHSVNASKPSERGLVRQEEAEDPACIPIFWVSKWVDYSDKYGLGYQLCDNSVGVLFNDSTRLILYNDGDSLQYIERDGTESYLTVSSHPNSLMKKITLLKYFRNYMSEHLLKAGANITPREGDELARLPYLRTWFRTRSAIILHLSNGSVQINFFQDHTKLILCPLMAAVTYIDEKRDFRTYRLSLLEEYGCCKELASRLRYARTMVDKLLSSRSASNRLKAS
Sequence of TrkA (P04629 33-796): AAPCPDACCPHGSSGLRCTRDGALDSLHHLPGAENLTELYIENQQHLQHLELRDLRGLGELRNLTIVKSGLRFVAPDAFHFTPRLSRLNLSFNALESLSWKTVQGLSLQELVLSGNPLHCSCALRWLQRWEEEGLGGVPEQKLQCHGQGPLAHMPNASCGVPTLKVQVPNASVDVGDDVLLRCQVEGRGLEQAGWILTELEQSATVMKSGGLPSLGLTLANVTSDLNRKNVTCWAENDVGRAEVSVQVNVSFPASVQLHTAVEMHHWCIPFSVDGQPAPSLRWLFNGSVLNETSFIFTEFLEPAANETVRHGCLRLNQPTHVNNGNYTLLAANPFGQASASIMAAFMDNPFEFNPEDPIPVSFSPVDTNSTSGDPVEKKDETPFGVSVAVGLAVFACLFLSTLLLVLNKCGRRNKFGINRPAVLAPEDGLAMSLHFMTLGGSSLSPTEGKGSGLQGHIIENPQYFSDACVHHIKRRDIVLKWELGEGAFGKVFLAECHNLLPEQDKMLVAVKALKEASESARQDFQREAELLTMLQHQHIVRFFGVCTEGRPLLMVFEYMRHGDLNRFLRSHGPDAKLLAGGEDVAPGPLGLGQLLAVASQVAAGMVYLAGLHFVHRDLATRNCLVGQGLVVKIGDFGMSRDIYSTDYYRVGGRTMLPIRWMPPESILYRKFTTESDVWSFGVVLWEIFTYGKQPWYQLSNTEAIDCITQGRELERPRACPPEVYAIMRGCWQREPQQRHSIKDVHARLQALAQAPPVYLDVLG
Sequence of S6K1 (P23443 whole entry): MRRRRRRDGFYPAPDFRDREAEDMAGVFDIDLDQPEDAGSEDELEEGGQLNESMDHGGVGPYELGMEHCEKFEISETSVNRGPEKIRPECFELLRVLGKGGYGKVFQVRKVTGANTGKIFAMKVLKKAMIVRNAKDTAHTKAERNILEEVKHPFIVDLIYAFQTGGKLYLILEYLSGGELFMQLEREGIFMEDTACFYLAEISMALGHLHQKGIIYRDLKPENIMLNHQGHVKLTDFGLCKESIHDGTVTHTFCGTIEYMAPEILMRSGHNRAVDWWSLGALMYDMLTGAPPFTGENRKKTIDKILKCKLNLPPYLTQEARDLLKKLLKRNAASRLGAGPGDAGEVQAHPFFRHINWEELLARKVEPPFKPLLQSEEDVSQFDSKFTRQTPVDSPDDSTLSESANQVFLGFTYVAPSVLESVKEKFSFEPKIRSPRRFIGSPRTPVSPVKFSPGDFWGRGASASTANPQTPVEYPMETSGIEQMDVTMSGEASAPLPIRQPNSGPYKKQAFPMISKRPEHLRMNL
Sequence of HER4 (Q15303 26-1308): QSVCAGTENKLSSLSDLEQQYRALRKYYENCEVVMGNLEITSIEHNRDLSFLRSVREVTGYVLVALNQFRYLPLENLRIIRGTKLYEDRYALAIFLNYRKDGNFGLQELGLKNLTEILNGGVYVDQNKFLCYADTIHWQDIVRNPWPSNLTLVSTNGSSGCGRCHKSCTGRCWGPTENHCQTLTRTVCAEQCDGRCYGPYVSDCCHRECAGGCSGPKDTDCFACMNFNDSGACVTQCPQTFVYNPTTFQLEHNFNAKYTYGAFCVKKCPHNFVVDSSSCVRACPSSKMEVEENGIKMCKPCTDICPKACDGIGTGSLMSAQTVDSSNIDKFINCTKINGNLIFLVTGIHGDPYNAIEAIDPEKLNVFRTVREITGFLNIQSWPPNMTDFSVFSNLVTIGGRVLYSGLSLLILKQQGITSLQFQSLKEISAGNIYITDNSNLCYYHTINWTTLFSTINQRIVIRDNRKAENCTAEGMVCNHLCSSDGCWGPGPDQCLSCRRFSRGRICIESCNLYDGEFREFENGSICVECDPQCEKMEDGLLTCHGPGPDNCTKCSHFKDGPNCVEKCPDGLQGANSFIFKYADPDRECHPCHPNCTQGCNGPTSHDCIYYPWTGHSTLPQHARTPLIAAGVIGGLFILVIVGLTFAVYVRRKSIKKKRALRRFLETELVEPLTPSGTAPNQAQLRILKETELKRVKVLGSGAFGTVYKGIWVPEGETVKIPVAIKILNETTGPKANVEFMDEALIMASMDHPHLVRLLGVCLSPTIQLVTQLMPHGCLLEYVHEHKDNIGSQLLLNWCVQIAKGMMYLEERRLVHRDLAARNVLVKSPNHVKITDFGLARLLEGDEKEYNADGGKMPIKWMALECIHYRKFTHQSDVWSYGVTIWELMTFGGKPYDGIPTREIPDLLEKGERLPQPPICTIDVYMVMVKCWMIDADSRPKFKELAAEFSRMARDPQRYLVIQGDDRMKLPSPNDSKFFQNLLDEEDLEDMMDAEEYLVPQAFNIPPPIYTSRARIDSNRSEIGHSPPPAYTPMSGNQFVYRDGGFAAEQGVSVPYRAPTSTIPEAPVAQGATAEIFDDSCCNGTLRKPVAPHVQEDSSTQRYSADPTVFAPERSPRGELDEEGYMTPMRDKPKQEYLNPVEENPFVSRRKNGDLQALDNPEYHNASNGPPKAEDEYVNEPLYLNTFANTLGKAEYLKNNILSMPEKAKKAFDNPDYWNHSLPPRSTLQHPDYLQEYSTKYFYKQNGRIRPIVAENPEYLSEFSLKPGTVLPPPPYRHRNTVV
Sequence of ROCK 2 (O75116 whole entry): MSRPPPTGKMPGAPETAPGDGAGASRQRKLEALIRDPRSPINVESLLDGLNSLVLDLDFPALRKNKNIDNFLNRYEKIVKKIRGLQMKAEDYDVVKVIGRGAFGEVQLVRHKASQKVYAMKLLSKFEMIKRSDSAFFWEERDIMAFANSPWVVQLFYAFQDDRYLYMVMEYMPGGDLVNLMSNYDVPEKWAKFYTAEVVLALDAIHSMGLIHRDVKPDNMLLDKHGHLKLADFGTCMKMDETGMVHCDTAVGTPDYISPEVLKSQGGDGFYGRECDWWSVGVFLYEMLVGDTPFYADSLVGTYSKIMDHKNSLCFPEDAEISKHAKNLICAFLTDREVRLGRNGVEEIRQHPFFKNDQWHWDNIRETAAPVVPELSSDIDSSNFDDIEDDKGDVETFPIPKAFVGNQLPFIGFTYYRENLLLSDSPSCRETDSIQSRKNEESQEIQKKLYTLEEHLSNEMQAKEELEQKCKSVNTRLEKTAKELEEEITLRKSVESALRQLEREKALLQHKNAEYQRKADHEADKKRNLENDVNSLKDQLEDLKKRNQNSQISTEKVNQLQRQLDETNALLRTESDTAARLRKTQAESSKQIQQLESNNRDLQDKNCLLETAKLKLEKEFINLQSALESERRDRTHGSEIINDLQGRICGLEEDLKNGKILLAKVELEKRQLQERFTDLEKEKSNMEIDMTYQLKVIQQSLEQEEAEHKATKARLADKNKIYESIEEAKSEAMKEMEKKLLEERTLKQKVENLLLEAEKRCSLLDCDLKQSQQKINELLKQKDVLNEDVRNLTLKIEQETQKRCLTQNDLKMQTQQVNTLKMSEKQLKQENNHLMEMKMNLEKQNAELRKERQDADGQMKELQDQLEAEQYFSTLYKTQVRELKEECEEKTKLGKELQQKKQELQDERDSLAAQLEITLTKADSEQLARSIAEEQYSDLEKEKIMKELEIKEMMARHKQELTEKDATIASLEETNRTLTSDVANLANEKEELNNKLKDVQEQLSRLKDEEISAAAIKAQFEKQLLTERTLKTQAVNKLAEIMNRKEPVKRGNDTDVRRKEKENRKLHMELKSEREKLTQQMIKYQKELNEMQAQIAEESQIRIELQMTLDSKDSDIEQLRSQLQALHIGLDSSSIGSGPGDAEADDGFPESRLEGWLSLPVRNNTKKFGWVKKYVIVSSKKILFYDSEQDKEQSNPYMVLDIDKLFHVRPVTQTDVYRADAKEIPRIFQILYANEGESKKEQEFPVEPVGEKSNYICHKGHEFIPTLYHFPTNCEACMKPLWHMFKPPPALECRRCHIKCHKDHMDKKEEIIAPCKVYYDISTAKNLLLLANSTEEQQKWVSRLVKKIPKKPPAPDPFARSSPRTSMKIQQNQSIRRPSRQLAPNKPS

| Structure (SMILES) | IC50 [1] [nM] | % remaining activity (SmMLCK) [%] | % remaining activity (CHK2) [%] | % remaining activity (HER4) [%] | % remaining activity (S6K1) [%] | % remaining activity (SRPK1) [%] | % remaining activity (TrkA) [%] | % remaining activity (TBK1) [%] | % remaining activity (IGF-1R) [%] | % remaining activity (PLK1) [%] | % remaining activity (ROCK 2) [%] | Thermodynamic solubility (S) ([2]; pH 5) [µM] | Thermodynamic solubility (S) ([2]; pH 7.4) [µM] | % remaining activity (AMPK (hum)) [%] |
| --- | --- | --- | --- | --- | --- | --- | --- | --- | --- | --- | --- | --- | --- | --- |
| CC(=NNC1=NCc2ccccc2-c2c1[nH]c1ccc(Br)cc21)c1ccc(CN2CCOCC2)cn1.[Cl][Cu][Cl] [compound 4, CuCl2(HL^4)·0.5H2O] | 130 |  |  |  |  |  |  |  |  |  |  |  |  |  |
| CC(=NNc1nc2ccccc2c2c1[nH]c1ccc(Br)cc12)c1ccc(CN2CCOCC2)cn1.[Cl][Cu][Cl] [compound 8, CuCl2(HL^8)·H2O] | 50 | 87 | 119 | 71 | 109 | 40 | 82 | 76 | 60 | 90 | 98 | 34.3 | 10.4 | 91 |
